# Assay results as given in patent publication US20100292214A1, “Compounds with Antiparasitic Activity, Applications thereof to the Treatment of Infectious Diseases Caused by Apicomplexans” (commissariat a l'Energie Atomique, priority 2007, published 2010).
# Where a name gives a salt, the structure may show the parent alone.
# Legend:
# [1] = tested on: Toxoplasma gondii RH-β1 strain; test: microbe, parasite or virus in culture; type: cell-based; conditions: Toxoplasma gondii, read-out: IC50 assessed on Toxoplama Gondii
# [2] = tested on: asynchronous 3D7 chloroquine-sensitive P. falciparum infected red blood cells; test: Labeled hypoxanthine incorporation assay (in vitro anti-malarial activity); type: cell-based; conditions: Plasmodium falciparum, 3D7, Erythrocyte, 3D7 chloroquine-sensitive strain, infected RBC, 48 h contact, [3H]-hypoxanthine incorporation; two independent experiments in duplicates; read-out: IC50 assessed on Plasmodium Falciparum
SMILES,IC50 [1],IC50 [2]
"C[C@@H](COC(=O)N1CCC(n2c(=O)oc3ccccc32)CC1)N(Cc1ccccc1)Cc1ccccc1 [Compound 2, (S)-2-(dibenzylamino)propyl 4-(2-oxobenzo[d]oxazol-3(2H)-yl)piperidine-1-carboxylate]",800 nM,14800 nM
"C[C@@H](COC(=O)N1CCC(n2cnc3ccccc32)CC1)N(Cc1ccccc1)Cc1ccccc1 [Compound 3, (S)-2-(dibenzylamino)propyl 4-(1H-benzo[d]imidazol-1-yl)piperidine-1-carboxylate]",8000 nM,1810 nM
"C[C@@H](COC(=O)N1CCC(Oc2nc3ccccc3n2C)CC1)N(Cc1ccccc1)Cc1ccccc1 [Compound 5, (S)-2-(dibenzylamino)propyl 4-(1-methyl-1H-benzo[d]imidazol-2-yloxy)piperidine-1-carboxylate]",2500 nM,6160 nM
"C[C@@H](COC(=O)NCCCn1c(=O)[nH]c2ccccc21)N(Cc1ccccc1)Cc1ccccc1 [Compound 6, (S)-2-(dibenzylamino)propyl 3-(1,2-dihydro-2-oxobenzo[d]imidazol-3-yl)propylcarbamate]",381 nM,16600 nM
"C[C@@H](COC(=O)N1CCC(N2CCCc3ccccc32)CC1)N(Cc1ccccc1)Cc1ccccc1 [Compound 8, (S)-2-(dibenzylamino)propyl 4-(3,4-dihydroquinolin-1(2H)-yl)piperidine-1-carboxylate]",25000 nM,2810 nM
"O=c1[nH]c2ccccc2n1C1CCN(CCCCN(Cc2ccccc2)Cc2ccccc2)CC1 [Compound 9, 1-(1-(4-(dibenzylamino)butyl)piperidin-4-yl)-1H-benzo[d]imidazol-2(3H)-one]",1500 nM,2950 nM
"C[C@@H](COC(=O)N1CCC(n2c(=O)[nH]c3ncccc32)CC1)N(Cc1ccccc1)Cc1ccccc1 [Compound 11, (S)-2-(dibenzylamino)propyl 4-(2,3-dihydro-2-oxoimidazo[4,5-b]pyridin-1-yl)piperidine-1-carboxylate]",2500 nM,3840 nM
"CN(CCOC(=O)N1CCC(n2c(=O)[nH]c3ccccc32)CC1)Cc1ccccc1 [Compound 27, 2-(N-benzyl-N-methylamino)ethyl 4-(1,2-dihydro-2-oxobenzo[d]imidazol-3-yl)piperidine-1-carboxylate]",2000 nM,–
"O=C(OCCOCc1ccccc1)N1CCC(n2c(=O)[nH]c3ccccc32)CC1 [Compound 31, 2-(benzyloxy)ethyl 4-(1,2-dihydro-2-oxobenzo[d]imidazol-3-yl)piperidine-1-carboxylate]",500 nM,–
"O=C(OC1CCCN(Cc2ccccc2)C1)N1CCC(n2c(=O)[nH]c3ccccc32)CC1 (centres unmarked) [Compound 33, 1-benzylpiperidin-3-yl 4-(1,2-dihydro-2-oxobenzo[d]imidazol-3-yl)piperidine-1-carboxylate]",450 nM,–
"CC(C)N(CCOC(=O)N1CCC(n2c(=O)[nH]c3ccccc32)CC1)C(C)C [Compound 34, 2-(diisopropylamino)ethyl 4-(1,2-dihydro-2-oxobenzo[d]imidazol-3-yl)piperidine-1-carboxylate]",27000 nM,–
"CN(C)CCOC(=O)N1CCC(n2c(=O)[nH]c3ccccc32)CC1 [Compound 35, 2-(dimethylamino)ethyl 4-(1,2-dihydro-2-oxobenzo[d]imidazol-3-yl)piperidine-1-carboxylate]",4000 nM,–
"CCN(CC)CCOC(=O)N1CCC(n2c(=O)[nH]c3ccccc32)CC1 [Compound 39, 2-(diethylamino)ethyl 4-(1,2-dihydro-2-oxobenzo[d]imidazol-3-yl)piperidine-1-carboxylate]",12000 nM,–
"C[C@@H](COC(=O)N1CCC(n2c(=O)n(C(=O)C(C)(C)C)c3ccccc32)CC1)N(Cc1ccccc1)Cc1ccccc1 [Compound 66, (S)-2-(dibenzylamino)propyl 4-(1,2-dihydro-2-oxo-1-(pivaloyl)benzo[d]imidazol-3-yl)piperidine-1-carboxylate]",2800 nM,–
"C[C@@H](COC(=O)N1CCC(N(c2ccccc2)S(=O)(=O)c2ccc(-c3ccccc3)cc2)CC1)N(Cc1ccccc1)Cc1ccccc1 [Compound 170, (S)-2-(dibenzylamino)propyl 4-(N-phenyl-biphenyl-4-sulfonamido)piperidine-1-carboxylate]",–,2200 nM
"C[C@@H](COC(=O)N1CCC(N(c2ccccc2)S(=O)(=O)c2ccc3ccccc3c2)CC1)N(Cc1ccccc1)Cc1ccccc1 [Compound 171, (S)-2-(dibenzylamino)propyl 4-(N-phenyl-naphthalen-2-ylsulfonamido)piperidine-1-carboxylate]",–,4430 nM
"C[C@@H](COC(=O)N1CCC(Nc2ccccc2Sc2ccc(Cl)cc2)CC1)N(Cc1ccccc1)Cc1ccccc1 [Compound 173, (S)-2-(dibenzylamino)propyl 4-(2-(4-chlorophenylthio)phenylamino)piperidine-1-carboxylate]",–,2580 nM

SMILES,IC50 [1],IC50 [2]
"Cc1cccc(C)c1NC1CCN(C(=O)OC[C@H](Cc2ccccc2)N(Cc2ccccc2)Cc2ccccc2)CC1 [Compound 174, (S)-2-(dibenzylamino)-3-phenylpropyl 4-(2,6-dimethylphenylamino)piperidine-1-carboxylate]",–,913 nM
"CCc1cccc(CC)c1NC1CCN(C(=O)OC[C@H](Cc2ccccc2)N(Cc2ccccc2)Cc2ccccc2)CC1 [Compound 175, (S)-2-(dibenzylamino)-3-phenylpropyl 4-(2,6-diethylphenylamino)piperidine-1-carboxylate]",–,2600 nM
"CSc1ccccc1NC1CCN(C(=O)OC[C@H](Cc2ccccc2)N(Cc2ccccc2)Cc2ccccc2)CC1 [Compound 176, (S)-2-(dibenzylamino)-3-phenylpropyl 4-(2-(methylthio)phenylamino)piperidine-1-carboxylate]",–,2650 nM
"C[C@@H](COC(=O)N1CCC(n2c(N)nc3ccccc32)CC1)N(Cc1ccccc1)Cc1ccccc1 [Compound 177, (S)-2-(dibenzylamino)propyl 4-(2-amino-1H-benzo[d]imidazol-1-yl)piperidine-1-carboxylate]",3800 nM,–
"O=C(Oc1ccc(N(Cc2ccccc2)Cc2ccccc2)cc1)N1CCC(n2c(=O)[nH]c3ccccc32)CC1 [Compound 178, 4-(dibenzylamino)phenyl 4-(1,2-dihydro-2-oxobenzo[d]imidazol-3-yl)piperidine-1-carboxylate]",1300 nM,–
"C[C@@H](COC(=O)N1CCC(c2cccc3[nH]c(=O)[nH]c23)CC1)N(Cc1ccccc1)Cc1ccccc1 [Compound 179, (S)-2-(dibenzylamino)propyl 4-(2-oxo-2,3-dihydro-1H-benzo[d]imidazol-4-yl)piperidine-1-carboxylate]",3250 nM,–
"O=C(OCCCCCCN(Cc1ccccc1)Cc1ccccc1)N1CCC(n2c(=O)[nH]c3ccccc32)CC1 [Compound 180, 6-(dibenzylamino)hexyl 4-(1,2-dihydro-2-oxobenzo[d]imidazol-3-yl)piperidine-1-carboxylate]",2000 nM,–
"O=C(OCc1ccccc1)N1CCC(n2c(=O)[nH]c3ccccc32)CC1 [Compound 181, Benzyl 4-(1,2-dihydro-2-oxobenzo[d]imidazol-3-yl)piperidine-1-carboxylate]",300 nM,–
"O=C(OCC1CCCCN1Cc1ccccc1)N1CCC(n2c(=O)[nH]c3ccccc32)CC1 (centres unmarked) [Compound 182, (1-benzylpiperidin-2-yl)methyl 4-(1,2-dihydro-2-oxobenzo[d]imidazol-3-yl)piperidine-1-carboxylate]",5000 nM,–
"O=C(OC[C@H](Cc1ccccc1)N(Cc1ccccc1)Cc1ccccc1)N1CCC(N(c2ccccc2)S(=O)(=O)c2ccc(C(F)(F)F)cc2)CC1 [Compound 183, (S)-2-(dibenzylamino)-3-phenylpropyl 4-(N-phenyl-4-(trifluoromethyl)phenylsulfonamido)piperidine-1-carboxylate]",3100 nM,–
"C[C@@H](COC(=O)N1CCC(n2c(=O)[nH]c3ccccc32)CC1)N(Cc1ccccc1)Cc1ccc(F)cc1 [Compound 184, (S)-2-(benzyl(4-fluorobenzyl)amino)propyl 4-(2-oxo-2,3-dihydro-1H-benzo[d]imidazol-1-yl)piperidine-1-carboxylate hydrochloride]",3300 nM,–
"CC(C)(C)OC(=O)N(CCOC(=O)N1CCC(n2c(=O)[nH]c3ccccc32)CC1)Cc1ccccc1 [Compound 185, 2-(benzyl(tert-butoxycarbonyl)amino)ethyl 4-(2-oxo-2,3-dihydro-1H-benzo[d]imidazol-1-yl)piperidine-1-carboxylate]",2000 nM,–
"Cn1c(CN(CCCOC(=O)N2CCC(n3c(=O)[nH]c4ccccc43)CC2)Cc2ccccc2)cc2ccccc21 [Compound 186, 3-(benzyl((1-methyl-1H-indol-2-yl)methyl)amino)propyl 4-(2-oxo-2,3-dihydro-1H-benzo[d]imidazol-1-yl)piperidine-1-carboxylate hydrochloride]",4800 nM,–
"COC(=O)c1ccc(CN(CCOC(=O)N2CCC(n3c(=O)[nH]c4ccccc43)CC2)Cc2ccccc2)cc1 [Compound 187, 2-(benzyl(4-(methoxycarbonyl)benzyl)amino)ethyl 4-(2-oxo-2,3-dihydro-1H-benzo[d]imidazol-1-yl)piperidine-1-carboxylate]",2200 nM,–
"O=C(OCCCN(Cc1ccccc1)Cc1cccc(OCc2ccccc2)c1)N1CCC(n2c(=O)[nH]c3ccccc32)CC1 [Compound 188, 3-(benzyl(3-(benzyloxy)benzyl)amino)propyl 4-(2-oxo-2,3-dihydro-1H-benzo[d]imidazol-1-yl)piperidine-1-carboxylate]",3000 nM,–
"CC(C)C[C@@H](COC(=O)N1CCC(n2c(=O)[nH]c3ccccc32)CC1)NCc1ccccc1 [Compound 189, (S)-2-(benzylamino)-4-methylpentyl 4-(2-oxo-2,3-dihydro-1H-benzo[d]imidazol-1-yl)piperidine-1-carboxylate]",2300 nM,–
"O=C(OCC(Cc1ccccc1)NCc1ccccc1)N1CCC(n2c(=O)[nH]c3ccccc32)CC1 (centres unmarked) [Compound 190, 2-(benzylamino)-3-phenylpropyl 4-(2-oxo-2,3-dihydro-1H-benzo[d]imidazol-1-yl)piperidine-1-carboxylate]",800 nM,–
